Structures can show the parent of a compound that is named as a salt.
Tests used:
HIV-1 RT = HIV-1 RT (Human immunodeficiency virus type 1 group M subtype B, UniProt P03366); conditions: Bioorg. Med. Chem. Lett. 2000 (10), 265-268; cited from earlier work
h5-HT5A receptor = molecular target: T1, h5-HT5A receptor (Homo sapiens, UniProt P47898); test: [3H]5-CT binding assay h5-HT5A; conditions: membranes from HEK293 cells expressing h5-HT5A, 2.5 nM [3H]5-CT; read-out: Binding affinity 5-HT5A (Ki)
T1 construct: expressed in transfected cells; host or cells: HEK293
T1 sequence (P47898 whole entry): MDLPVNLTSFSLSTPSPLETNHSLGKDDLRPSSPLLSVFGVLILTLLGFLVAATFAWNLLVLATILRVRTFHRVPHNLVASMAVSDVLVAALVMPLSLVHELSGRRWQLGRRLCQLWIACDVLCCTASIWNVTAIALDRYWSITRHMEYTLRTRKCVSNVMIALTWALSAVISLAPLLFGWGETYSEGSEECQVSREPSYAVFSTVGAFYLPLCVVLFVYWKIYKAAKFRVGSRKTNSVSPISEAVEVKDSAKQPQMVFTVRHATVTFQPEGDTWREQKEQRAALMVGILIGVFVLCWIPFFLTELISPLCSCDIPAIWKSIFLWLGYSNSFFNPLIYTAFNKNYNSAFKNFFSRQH
Procedure, shortened: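 Membranes from HEK293 cells stably expressing h5-HT5A incubated with 2.5 nM [3H]5-CT and compound in 100 mM Tris-HCl pH 7.7, 1 mM EDTA, 75 min at 30° C. Nonspecific binding with 10 μM methiothepine; filtration and scintillation counting give Ki or IC50.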

| Compound | Ki (h5-HT5A receptor) | biological activity (HIV-1 RT) |
| --- | --- | --- |
| COc1ccccc1CCNC(=N)Nc1nccs1 [N-[2-(2-methoxyphenyl)ethyl]-N′-1,3-thiazole-2-ylguanidine] | – | did not show any demonstrable biological activity |
| COc1ccccc1CNC(=N)Nc1cc(C(C)(C)C)[nH]n1 [Example 200, N-(5-tert-butyl-1H-pyrazole-3-yl)-N′-(2-methoxy-benzyl)-guanidine] | 50 to 500 nM | – |
| COc1ccccc1CNC(=N)Nc1nc(-c2ccccc2)c[nH]1 [Example 188, N-(2-methoxybenzyl)-N′-(4-phenyl-1H-imidazole-2-yl)guanidine acetate] | < 50 nM | – |
| N-(2,6-dimethoxybenzyl)-N′-(5-methyl-4-phenyl-1,3-thiazole-2-yl)guanidine hydrobromide [Example 81] | < 50 nM | – |
| COc1cccc(F)c1CNC(=N)Nc1nccs1 [Example 9, N-(2-fluoro-6-methoxybenzyl)-N′-1,3-thiazole-2-ylguanidine] | < 50 nM | – |
| COc1ccccc1CNC(=N)Nc1nc2ccccc2s1 [Example 28, N-1,3-benzothiazole-2-yl-N′-(2-methoxybenzyl)guanidine (2E)-But-2-endioate] | 50 to 500 nM | – |
| COc1ccccc1CNC(=N)Nc1nc(C)c(C)o1 [Example 173, N-(4,5-dimethyl-1,3-oxazole-2-yl)-N′-(2-methoxybenzyl)guanidine] | 50 to 500 nM | – |
| COc1ccccc1CNC(=N)Nc1cc(-c2ccc(Cl)cc2)[nH]n1 [Example 211, N-[5-(4-chlorophenyl)-1H-pyrazole-3-yl]-N′-(2-methoxybenzyl)guanidine] | < 50 nM | – |
| COc1ccccc1CNC(=N)Nc1nc(-c2ccccc2C(F)(F)F)cs1 [Example 103, N-(2-methoxybenzyl)-N′-{4-[2-(trifluoromethyl)phenyl]-1,3-thiazole-2-yl}guanidine] | 50 to 500 nM | – |
| COc1ccccc1CNC(=N)Nc1nc(-c2ccc(F)cc2)c[nH]1 [Example 186, N-[4-(4-fluorophenyl)-1H-imidazole-2-yl]-N′-(2-methoxybenzyl)guanidine] | < 50 nM | – |

The next lines start with results.

| Ki (h5-HT5A receptor) | Compound | biological activity (HIV-1 RT) |
| --- | --- | --- |
| < 50 nM | COc1cccc(OC)c1CNC(=N)Nc1nc(-c2nc3ccccc3s2)cs1 [Example 88, N-[4-(1,3-benzothiazole-2-yl)-1,3-thiazole-2-yl]-N′-(2,6-dimethoxybenzyl)guanidine hydrobromide] | – |
| < 50 nM | COc1cccc(OC)c1CNC(=N)Nc1nc(-c2c(OC)cccc2OC)cs1 [Example 113, N-(2,6-dimethoxybenzyl)-N′-[4-(2,6-dimethoxyphenyl)-1,3-thiazole-2-yl]guanidine] | – |
| < 50 nM | COc1cccc(OC)c1CNC(=N)Nc1cc[nH]n1 [Example 203, N-(2,6-dimethoxybenzyl)-N′-1H-pyrazole-3-ylguanidine] | – |
| 50 to 500 nM | COc1cccc(OC)c1CNC(=N)Nc1nc(-c2ccc(C(F)(F)F)cc2)cs1 [Example 107, N-(2,6-dimethoxybenzyl)-N′-{4-[4-(trifluoromethyl)phenyl]-1,3-thiazole-2-yl}guanidine] | – |
| < 50 nM | COc1cccc(OC)c1CNC(=N)Nc1cc(-c2ccccc2)[nH]n1 [Example 202, N-(2,6-dimethoxybenzyl)-N′-(5-phenyl-1H-pyrazole-3-yl)guanidine] | – |
| 50 to 500 nM | COc1ccccc1CNC(=N)Nc1nc(-c2ccccc2Cl)cs1 [Example 43, N-[4-(2-chlorophenyl)-1,3-thiazole-2-yl]-N′-(2-methoxybenzyl)guanidine (2E)-But-2-endioate] | – |
| < 50 nM | COc1cccc(OC)c1CNC(=N)Nc1nc(-c2ccnc3c(F)cccc23)cs1 [Example 165, N-(2,6-dimethoxybenzyl)-N′-[4-(8-fluorochinoline-4-yl)-1,3-thiazole-2-yl]guanidine] | – |
| < 50 nM | COc1cccc(OC)c1CNC(=N)Nc1nc(-c2cccc(F)c2)cs1 [Example 73, N-(2,6-dimethoxybenzyl)-N′-[4-(3-fluorophenyl)-1,3-thiazole-2-yl]guanidine hydrobromide] | – |
| < 50 nM | COc1cccc(OC)c1CNC(=N)Nc1nc(-c2ccc(F)cc2OCCN2CCOCC2)cs1 [Example 153, N-(2,6-dimethoxybenzyl)-N′-{4-[4-fluoro-2-(2-morpholine-4-ylethoxy)phenyl]-1,3-thiazole-2-yl}guanidine] | – |
| < 50 nM | COc1cccc(OC)c1CNC(=N)Nc1nc(-c2cccnc2)cs1 [Example 50, N-(2,6-dimethoxybenzyl)-N′-(4-pyridine-3-yl-1,3-thiazole-2-yl)guanidine acetate] | – |
